Measured values from patent US9622469B2, “Crosslink breakers for preservation of biological substances” (priority 2013, dated 2017).
Entries after “also recorded” stand apart in the source; their conditions may differ. Marks after values point to notes of the source that are not given here.

Assays:
[1] = system: HOD alloantigen on stored RBCs; assay: Immunogenicity of stored blood upon transfusion (anti-HOD IgG ELISA); assay type: in vivo, mouse; conditions: blood stored 14 days, transfused into B6 mice, 14 days following transfusion
Protocol: (§1) Leuko-reduced mouse blood was stored under typical storage conditions for up to 14 days, in either OCR6043, control compound, or without any treatment. FIG. 2A illustrates an analysis of glucose in the serum from the stored blood was evaluated using a glucose oxidase enzymatic assay. […] FIG. 2B illustrates the AGE precursor levels on RBCs were measured using a dicarbonyl-specific fluorophore that was developed in-house. The time dependent increase in the AGE precursor levels was dampened in the presence of OCR6043. FIG. 2C illustrates mouse blood that was stored for 14 days, was evaluated for its immunogenicity upon transfusion, by testing for IgGs against an alloantigen on the RBCs (HOD=HEL-OVA-Duffy).
OCR6043 treatment decreases immunogenicity, and enhances post-transfusion recovery of stored mouse blood. Leukoreduced mouse blood was stored under typical storage conditions for up to 14 days in either OCR6043 or without any treatment. This mouse blood was evaluated for its immunogenicity upon transfusion by testing for IgGs against an alloantigen on the RBCs (HOD=HEL-OVA-Duffy).
As described herein, the stored blood has an HOD marker allowing facile detection after transfusion. We transfused […] of stored blood into B6 mice (not expressing the HOD antigen). […] The anti-HOD IgG response was evaluated using standard ELISA techniques described in Hendrickson et at.

[2] = NHC-mediated cleavage of benzil (15), Method B; assay type: biochemical; conditions: LCMS, with respect to dicarbonyl
Protocol: (§2) 60 mM solution of dicarbonyl substrate (45 μmol) in MeCN (0.75 ml) was added to 20 mM solution of NHC (15 μmol) in 0.15 M pH 7.4 sodium phosphate buffer (0.75 ml) and kept stirred at 37° C. At stated times, 75 μl aliquots were taken, diluted with 50% MeCN/H2O (425 μl) and analyzed by LCMS with 2,4-dihydroxyquinoline (248 μM) as an internal standard. The cleavage products were quantified by peak integration against the calibration curves.
Our efforts to investigate the scope of thiazolium salt-mediated reactions with dicarbonyls began with bis-alkyl diketone 14 (Table 3, Entry 1). This substrate is cleaved cleanly by 2, and affords acid 18 in 82% yield. NHC precursor 4, on the other hand, provides 18 in only 14% yield (Entry 2). The efficiency of dicarbonyl cleavage reactions decreases substantially in the case of benzil (15, Entry 3), which affords benzoic acid in 14% and 1% yield following exposure to 2 and 4, respectively.

[3] = NHC-mediated reaction with α-keto aldehyde phenylglyoxal (16), Method B; assay type: biochemical; conditions: isolated yield with respect to 2
Protocol: as §2
Phenylglyoxal hydrate (16; 114 mg, 0.75 mmol, 2 eq) was added to a solution of ALT-711 (2; 100 mg, 0.37 mmol) in 50% MeCN/0.15 M pH 7.4 phosphate buffer (total vol. 37 ml) and kept stirred at room temperature for 15 mins. The reaction mixture was cooled to −20° C. to precipitate out sodium phosphate as white crystals. The supernatant was transferred, and the residue was washed with MeCN and combined with the supernatant. This yellow clear solution was concentrated at room temperature to remove MeCN and purified by HPLC (16-27MeCN over 31 min). […]
Reactions involving α-keto aldehyde derivatives 16 and 17 followed an unexpected course. Treatment of these substrates with 2 led to instantaneous, high-yield production of a diastercomeric mixture of cycloadducts (19 and 20) that decompose to complex mixtures under the reaction conditions with half-lives of approximately 3 h Structures were determined based on in-depth NMR analysis (see Supplementary Material).

[4] = rats; cited from earlier work
[5] = various animal studies and clinical trials; cited from earlier work
[6] = Stability studies of NHC precursors under the PPD cleavage reaction conditions; assay type: physicochemical; conditions: exposure to PPD, Method B conditions
Source text: Instead, 7 gave rise predominantly to an oxalamide derivative, which is believed to form via dimerization and oxidation of intermediate carbenes. […] Stability studies afforded additional insights.
In cleavage of PPD with ALT-711 (2), we detected several decomposition products of the catalyst that appear to be adducts between 2 and an acetyl group, the remainder of PPD following the release of benzoic acid. One adduct that has been isolated and characterized explains why the concentration of ALT-711 diminishes after cleaving PPD while the benzyl counterpart (4) behaves as a stable catalyst. Instead of liberating acetaldehyde and re-entering the catalytic cycle, oxidation of alcohol 13 to the corresponding methyl ketone followed by an aldol condensation with the phenyl ketone gives rise to a thiazolopyridinium derivative (see Supplementary Material for details).

[7] = system: AGE precursor (α-dicarbonyl) on RBCs; assay: AGE precursor (α-dicarbonyl) levels on stored RBCs (dicarbonyl-specific fluorophore); assay type: cell-based, mouse; conditions: typical storage conditions, up to 14 days
Protocol: as §1

mouse RBC = assay: Storage of leukoreduced mouse blood in CPDA-1 at 4° C.: hemolysis and intact RBC count; assay type: cell-based; conditions: CPDA-1 buffer; for RBC viability / intact RBCs (hemocytometer): 13 days
Protocol: FIG. 1 illustrates OCR6043-mediated prolonging of the integrity of stored RBCs. Leuko reduced mouse blood was stored under FDA-approved storage conditions (CPDA-1 buffer at 4° C.) for up to 13 days, in either OCR6043, control compound (structurally similar to OCR6043, but nonfunctional as a AGE crosslink breaker), or without any additive.
This solution was stored at 4° C. according to FDA-approved conditions for 13 days. […] The steps to collect HOD blood from mice and the addition of the FDA-approved storage buffer CPDA are described in Hendrickson et al., Transfusion of fresh murine red blood cells reverses adverse effects of older stored red blood cells, Transfusion (2011) Vol. 12, pp. 2695-2702.
We also counted the intact RBCs using a hemocytometer after 13 days of storage as also depicted in FIG. 1.

With `Cc1sc[n+](CC(=O)c2ccccc2)c1C.[Cl-]` [Compound 2] the “Immunogenicity upon transfusion (IgG against HOD alloantigen)” value ([1]; listed as ALT-711) was “lower immunogenicity”, the “Immunogenicity upon transfusion (IgG against HOD alloantigen)” value ([1]; listed as OCR6043) was “decreased immunogenicity; also recorded: attenuated this immune response” and the “% Yield of PhCO2H from substrate 15 (benzil)” value [2] was 14%. The “% Yield of cycloadduct 19 from substrate 16” value [3] was 55^b %, the “MGO levels and MGO-induced glucose intolerance” value [4] was “lowered MOO levels and attenuated MOO-induced glucose intolerance” and the “Toxicity to animals and humans” value [5] was “non-toxic”. The “Stability of NHC precursor under the reaction conditions” value [6] was “disappear from solution”, the “Time dependent increase in AGE precursor levels on RBCs” value [7] was “dampened” and the “RBC viability / intact RBCs (hemocytometer)” value (mouse RBC; listed as ALT-711) was “higher levels of intact RBCs”. The “RBC viability / intact RBCs (hemocytometer)” value (mouse RBC; listed as OCR6043) was “superior cell viability” and the “Hemolysis of stored blood (supernatant appearance)” value (mouse RBC; up to 13 days, 12 mM) was “unhemolyzed”.
